Series [1] in a line: Cytotoxicity (Table 1). Format: cell-based.
For series [2], the system named is Trypanosoma cruzi parasites. The experiment in a line: Trypanosoma cruzi in vitro IC50 (structure-activity analyses). The series is classed as cell-based. Conditions: infection with Trypanosoma cruzi parasites for 72 hours and treatment with the compound for 72 hours. On the procedure: Select compounds described herein were evaluated for structure-activity analyses in vitro.

A short description of series [3]: Plasma pharmacokinetics and liver distribution study in female BALB/c mice. Format: in vivo, mouse. The conditions noted are these: 100 mg/kg, female BALB/c mice; for Tmax: mouse, plasma, read-out: Tmax (plasma). On the procedure: A plasma pharmacokinetics and liver distribution study of selected compounds, including Pyrrolopyridine-008 (2015-foleyc-216), Pyrrolopyridine-D20-ent (2015-foleyc-217), and Pyrrolopyridine-M03 (2015-foleyc-218), in female BALB/c mice was conducted following a single intraperitoneal and oral administration. […] The blood samples were collected from a set of […] mice at each time point in labeled micro centrifuge tube containing K2EDTA as anticoagulant. Plasma samples were separated by centrifugation at 4000 rpm for 10 min and stored below −70° C. until bioanalysis. After collection of blood sample, animals were humanely euthanized by carbon dioxide asphyxiation to collect liver from Group 1 and Group 2 at all the time points. The collected tissues were rinsed in PBS and were homogenized with nine times of liver weight in ice cold phosphate buffer saline (pH 7.4) and stored below −70° C. until bio-analysis. Total homogenate volume was ten times the tissue weight. All samples were processed for analysis by protein precipitation using acetonitrile and analyzed with fit-for-purpose LC-MS/MS method (LLOQ: 2.01 ng/mL for plasma and 50.30 ng/g for liver). Pharmacokinetic parameters were calculated using the non-compartmental analysis tool of Phoenix WinNonlin® (Version 6.3).

Series [4] concerns Asynchronous cultures. Kind of series: Parasitocidal or parasitostatic determination (rate of killing). Conditions: for parasitocidal activity (rate of killing): 3×IC50, asynchronous cultures treated for 12, 24, 48, or 72 hours, washed, monitored for continued growth. The series is classed as cell-based. On the procedure:
Asynchronous cultures were grown and treated with compounds, vehicle control or Dihydroartemisinin at 3×IC50 to determine their respective rate of killing curves. Cultures were treated for 12, 24, 48, or 72 hours with compound, washed several times to remove any inhibitor, and monitored for continued growth for several days. […] Overall, the exemplary compounds including, but not limited to, Tan003-M03 and ent-Tan003-D20 are parasitocidal agents blocking parasite maturation at the segmenter stage preventing egress, a novel mechanism of action absent among current antimalarials.

The test system of series [5] is P. falciparum Dd2. The experiment in a line: Anti-plasmodial growth inhibition, SYBR green I-based DNA quantification. Format: cell-based. The conditions noted are these: Plasmodium falciparum, 72 h incubation, n=3. On the procedure:
(§1) Select compounds described herein were evaluated for structure-activity analyses for anti-plasmodial activity in vitro. For Dd2 EC50 (M), calculations were for n=3. For HepG2 EC50 (M), calculations were for n=1. For the human microsomal stability determination, t was 60 minutes.
Different dilutions of the compound in RPMI 1640 (Life Technologies) from a stock of 10 mM in dimethyl sulfoxide (DMSO) were added to the culture at a 1% parasitemia and 2% hematocrit in 96-well black plates (Santa Cruz Biotechnology). Maximum DMSO concentration in the culture never exceeded 0.25%. Chloroquine at 1 μM was used as a positive control to determine the baseline value. Following 72 h incubation at 37° C., the ability of the compounds to inhibit growth of the parasite was determined by a SYBR green I-based DNA quantification assay (See Bennett et al., 2004, Chemother. 48, 1807-1810; see also Johnson et al., 2007, Antimicrob. Agents. Chemother. 51, 1926-1933; Smilkstein et al., 2004, Antimicrob. Agents. Chemother. 48, 1803-1806). EC50 was calculated (n=3) from a dose response curve that was generated from a concentration range of 0-20 μM using GraphPad Prism v5.0.

The subject of series [6] is HepG2 human hepatoma cells. Kind of series: HepG2 cytotoxicity, MTS cell proliferation assay. Conditions: 48 h, n=1. The series is classed as cell-based. How it is done:
as §1
Selected compounds were evaluated for cytotoxicity using HepG2 human hepatoma cells. A 384-well clear bottom plate was seeded with 2,500 cells/well and incubated for 24 h. Serial dilutions of the compound (were added to the plate and plates were incubated for an additional 48 h. Viability of cells were assessed by MTS [(3-(4,5-dimethylthiazol-2-yl)-5-(3-carboxymethoxyphenyl)-2-(4-sulfophenyl)-2H-tetrazolium) cell proliferation assay (CellTiter 96® Aqueous non-radioactive cell proliferation assay, Promega) (See Cory et al., Cancer Communications, 3, 1991, p. 207-212).

The subject of series [7] is synchronized parasite cultures (Dd2). The experiment in a line: Stage specific parasite inhibition (Giemsa smears, flow cytometry). Format: cell-based, P. falciparum. The conditions noted are these: for parasite stage development, Giemsa staining: 3×IC50, synchronized Dd2 cultures treated at ring, trophozoite or schizont stages, smears every 12 hours; for parasite stage progression, flow cytometry: 3×IC50, synchronized Dd2 cultures, YoYo-I DNA staining. On the procedure: Select compounds described herein were evaluated for stage specific inhibition of parasite development. Tightly synchronized parasite cultures (Dd2) were treated with 3×IC50 concentrations of compound Tan003-M03 (“M03”), compound ent-Tan003-D20 (“D20-ent”), compound Tan003-O08 (“008”) or compound Tan002-O12 (“012”) at early ring, late ring, trophozoite, and schizont stages. Every 12 hours, Giemsa smears were made for treated cultures and samples were also collected and fixed for flow cytometry. […] Prior to flow analysis, fixed samples were permeabilized, RNase treated, and stained with YoYo-I as described in Bouillon et al., 2013. […] As the parasite matures, the DNA content increases and peaks start to spread to the right because of schizogony. Following reinvasion parasitemia increases in the next growth cycle, which is represented by an increase in peak height.
(In general: A flow cytometer gives signals particle by particle.)

A short description of series [8]: Human microsomal stability. Conditions: t was 60 minutes. Format: in vitro ADME. On the procedure: as §1
To determine microsomal stability for selected compounds, a reaction plate was prepared by adding 691.25 μL, pre-warmed (37° C.) microsomal solution (0.63 mg/mL protein in 100 mM KPO4 with 1.3 mM EDTA) to an empty well of a 96 well plate and maintained at 37° C. The diluted 0.1 mM compound (8.75 μL) is added to the microsomal solution in the reaction plate and mixed thoroughly by repeated pipetting. The resulting solutions were pre-incubated for 5 minutes at 37° C. before preparing the T=0 plates. For the T=0 plates, an aliquot (160 μL) of each reaction solution was added to an empty well of a 96 well plate, as an exact replicate of the Reaction Plate. Cold (4° C.) MeOH (400 μL) is added to each well and mixed thoroughly by repeated pipetting. NADPH Regeneration solution (40 μL) is added to each well and mixed thoroughly by repeated pipetting. For the T=60 minute Incubation Plates (without NADPH), an aliquot (160 μL) of each reaction solution was added to an empty well of a 96 well plate, as an exact replicate of the Reaction Plate. LC-MS grade H2O (40 μL) is added to each well and mixed thoroughly by repeated pipetting. The plate was sealed and incubated at 37° C. for the incubation period. After incubation, cold (4° C.) MeOH (400 μL) is added to each well and mixed thoroughly by repeated pipetting. For the T=60 minute Incubation Plates, NADPH (95 μL) was added to the remaining solution (microsomes+test compound) in each well in the previously-prepared reaction plate to initiate the reaction. The plate was sealed and incubated at 37° C. for the incubation period. An aliquot (100 μL) was removed from each well at the desired time point and dispensed into a well of a 96-well plate. 200 μL of cold (4° C.) MeOH was […] the reaction.

Series [9] in a line: Kinetic solubility assay. Format: physicochemical. The conditions noted are these: 1×PBS pH 7.4 buffer, 24 °C, pH 7.4, aqueous buffer, kinetic from dmso stock, 1×PBS pH7.4, 2.0% DMSO, ambient temperature, read-out: Solubility LogS, at pH 7.4 (converted).

As usually defined, the IC50 is the concentration that inhibits the measured activity by half. A low value points to higher potency. The Tmax is the time at which the peak concentration occurs. As a reminder, the EC50 is the midpoint of the concentration-response curve. Low values mean a more potent agent, high ones a less potent agent. One may read the solubility as the concentration that dissolves in the medium under given conditions.

Each structure is given as a SMILES string. Values after ≈ are worked out from the molar mass of the structure shown. “Also recorded” adds a separate entry of the source. Read-outs that look alike come from different tables or passages of the source.

For the compound `CN(C)CC#Cc1cccc(-c2nc(C(=O)N[C@H]3CCN(Cc4ccccc4)C3)cc3c2[C@@H](CCO)N([S@+]([O-])C(C)(C)C)C3)c1` [Compound 89, (R)-N-((S)-1-benzylpyrrolidin-3-yl)-2-((R)-tert-butylsulfinyl)-4-(3-(3-(dimethylamino)prop-1-yn-1-yl)phenyl)-3-(2-hydroxyethyl)-2,3-dihydro-1H-pyrrolo[3,4-c]pyridine-6-carboxamide], the Cytotoxicity in [1] is >10 µM. The same compound registered a half-inhibitory concentration (IC50) in series [2] of 0.028 µM.

Turning to `CCOC(=O)c1cc2c(c(-c3cccc(C#CCN(C)C)c3)n1)[C@@H](CCO)N([S@+]([O-])C(C)(C)C)C2` [Compound 90, Ethyl (R)-2-((R)-tert-butylsulfinyl)-4-(3-(3-(dimethylamino)prop-1-yn-1-yl)phenyl)-3-(2-hydroxyethyl)-2,3-dihydro-1H-pyrrolo[3,4-c]pyridine-6-carboxylate], in series [1], the Cytotoxicity was >10 µM. Moreover, in [2], the IC50 is 8.5 µM.

Turning to `CCOC(=O)c1cc2c(c(-c3ccccc3)n1)[C@@H](CCO)N([S@+]([O-])C(C)(C)C)C2` [Tan002-O12, Ethyl (R)-2-((R)-tert-butylsulfinyl)-3-(2-hydroxyethyl)-4-phenyl-2,3-dihydro-1H-pyrrolo[3,4-c]pyridine-6-carboxylate], the Tmax in series [3] (ip, single intraperitoneal dose) is 60 min; in series [3] (single oral dose) it was 30 min. The “plasma concentrations quantifiable till” value in [3] (single intraperitoneal dose) and in series [3] (single oral dose) was 12 h each time. In addition, the “parasitocidal activity (rate of killing)” value in series [4] was “not seen; also recorded: did not show any parasitocidal activity”. Moreover, the half-maximal effective concentration (EC50) in series [5] was 890 ± 130 nM; in series [6] it was > 100 µM. Further, the “parasite stage development, Giemsa staining” value (“parasite stage development” for short) in series [7] is “inhibit parasite development before egress”. Further, in series [7], the “parasite stage progression, flow cytometry” value (“parasite stage progression” for short) was “block parasite stage progression prior to egress”.

As to `CC(C)(C)[S@@+]([O-])N1Cc2cc(C(=O)NCc3ccc4c(c3)OCO4)nc(-c3cccc(-c4cccnc4)c3)c2[C@H]1CCO` [Tan003-O08, (R)-N-(benzo[d][1,3]dioxol-5-ylmethyl)-2-((R)-tert-butylsulfinyl)-3-(2-hydroxyethyl)-4-(3-(pyridin-3-yl)phenyl)-2,3-dihydro-1H-pyrrolo[3,4-c]pyridine-6-carboxamide], the “viable parasites in asynchronous culture” value in series [4] (treatment for 72 hours) was “significantly decreases viable parasites”. In [7], the “parasite stage development” value is given as “inhibit parasite development before egress” and the “parasite stage progression” value is “block parasite stage progression prior to egress”.

`CC(C)(C)[S@@+]([O-])N1Cc2cc(C(=O)NCc3ccccc3F)nc(-c3cccc(-c4cccnc4)c3)c2[C@H]1CCO` [ent-Tan003-D20, (R)-2-((R)-tert-butylsulfinyl)-N-(2-fluorobenzyl)-3-(2-hydroxyethyl)-4-(3-(pyridin-3-yl)phenyl)-2,3-dihydro-1H-pyrrolo[3,4-c]pyridine-6-carboxamide]: the “parasitocidal activity (rate of killing)” value in series [4] was “parasitocidal and prohibit progression beyond segmenter stages; also recorded: parasitocidal and prevent any parasite development beyond the schizont stage when treated for at least 48 hours”. Moreover, a half-maximal effect in series [5] (EC50) was put at 380 ± 90 nM. Moreover, the midpoint of the response in [6], the EC50, lay at 60 µM. In addition, in series [7], the “parasite stage development” value is “inhibit parasite development before egress” and the “parasite stage progression” value is on record as “block parasite stage progression prior to egress”.

With `CC(C)NC(=O)N1Cc2cc(C(=O)NCC(F)(F)F)nc(-c3cccc(-c4cc5ccccc5o4)c3)c2[C@@H]1CCO` [ent-Tan003-M03], the “Human microsomal stability (%)” value in series [8] amounted to 62.7%. This compound registered an EC50 in series [5] of 200 ± 20 nM. Moreover, the solubility at 24 h in series [9] is 6.31 µM (≈ 3.57 µg/mL).

Source of the values: patent US12071436B2, “Anti-parasitic compounds and uses thereof” (Memorial Sloan-Kettering Cancer Center, priority 2016, dated 2024).
